Key:
[1] = molecular target: geranylgeranyltransferase I (GGTase I) (Homo sapiens, UniProt P53609); conditions: cited from earlier work
JNK = assay: Immunoblot for phosphorylated and total JNK; assay type: cell-based, human; conditions: 10 μM Y-27632 for 30 min prior to cell lysis
Method: MAPK Profiling. siRNA transfected cells were lysed in RIPA buffer (50 mM Tris pH 7.4, 150 mM NaCl, 1% NP-40) supplemented with protease and phosphatase inhibitors. Lysates were then analyzed by western blotting. Antibodies to phospho-JNK and total JNK were from Santa Cruz Biotechnology. Antibodies to phospho-ERK, phospho-p38, phospho-MKK4, phospho-MKK7, total ERK, total p38, total MKK4, and total MKK7 were from Cell Signaling Technology. The effect of ROCK inhibitor on JNK was tested by treating cells with 10 μM Y-27632 for 30 min prior to cell lysis. The effect of simvastatin on JNK was determined by treating cells with 10 μM simvastatin for 24 h prior to cell lysis.

mice = conditions: mouse, in vivo
CCM2-depleted HMVECs [2] = assay: Phalloidin staining for actin stress fibers; assay type: cell-based, human
Method: Immunofluorescent Cell Staining. Glass chamber slides were coated with human fibronectin (Biomedical Technologies, Inc.), and transfected cells were seeded at 50,000 cells per well. For the RhoA and ROCK experiment, cells were treated four days after seeding with 40 μg/mL of cell-permeable C3 transferase (Cytoskeleton, Inc.) or 20 μM Y-27632 for 4 hours. For the simvastatin experiment, cells were treated three days after seeding with 40 μM simvastatin (Calbiochem) or equivalent amounts of ethanol in growth media for 24 hours. Cells were fixed in 4% formaldehyde and incubated with an antibody against β-catenin (BD Biosciences). Fluorescent secondary antibody (Molecular Probes) was used to visualize β-catenin staining Actin cytoskeleton was visualized using fluorescently-conjugated phalloidin (Molecular Probes). Images were obtained with an Olympus FV300 confocal microscope.

CCM2-depleted HMVECs [3] = assay: Transendothelial electrical resistance (barrier function); assay type: cell-based, human; conditions: C3 transferase 1 μg ml^−1
Method: Transendothelial Resistance. An electrode culture array (Applied Biophysics) was coated with human fibronectin and transfected cells were seeded at 50,000 cells per well. Three days after seeding, cells were serum-starved in endothelial basal medium-2 with 0.2% BSA overnight. Transendothelial resistance was measured with an electric cell-substrate impedance sensing system (Applied Biophysics). Cell-permeable C3 transferase (1 μg ml^−1) was added to inhibit RHOA. For basal resistance, 40 wells each were measured for Rho inhibition experiments, six control wells each and ten C3 transferase wells each were measured.

## CC(C)C[C@H](NC(=O)c1ccc(NCc2c[nH]cn2)cc1-c1cccc2ccccc12)C(=O)O.O=C(O)C(F)(F)F [GGTI-2133, N-[[4-(Imidazol-4-yl)methylamino]-2-(1-naphthyl)benzoyl]leucine trifluoroacetate salt]
[1]
  selectivity for GGTase I over farnesyltransferase: 140 fold

## C[C@@H](N)[C@H]1CC[C@H](C(=O)Nc2ccncc2)CC1 [Y-27632, (R)-(+)-trans-N-(4-Pyridyl)-4-(1-aminoethyl)-cyclohexanecarboxamide]
JNK
  activation (phosphorylation) of JNK: decreased the activation of JNK
mice
  tolerability in mice: do not tolerate
CCM2-depleted HMVECs [2]; 20 μM Y-27632, 4 hours
  actin stress fiber response: blocked the stress fiber response

## C3 transferase
CCM2-depleted HMVECs [3]
  barrier function (transendothelial resistance): significantly rescue barrier function
CCM2-depleted HMVECs [2]; 40 μg/mL cell-permeable C3 transferase, 4 hours
  actin stress fiber response: blocked the stress fiber response
